# Measurements reported in patent US9828375B2, “4-position substituted pyrazolopyrimidine derivative, and use thereof in drug preparation” (Guangxi Wuzhou Pharmaceuticals (Group) Co., Ltd., priority 2012, dated 2017).
# Read-outs that look alike come from different tables or passages of the source.
# Assays:
# [1] = tested on: human leukemia cell line MV4-11; assay: In vitro tumor cell proliferation inhibition (MTT): MV4-11; assay type: cell-based
# From the text: (§1) The purpose of the experiment was to test the inhibition activity of the compounds of the invention for in vitro human tumor cell proliferation by the methyl thiazolyl tetrazolium (MTT) colorimetry.
# (§2) Main reagents: RPMI-1640, fetal bovine serum, pancreatin, etc. were purchased from Gibco BRL Company (Invitrogen Corporation, USA) and IMDM medium that was purchased from American Type Culture Collection (ATCC). Methyl thiazolyl tetrazolium (MTT) and dimethyl sulfoxide (DMSO) were products from Sigma Company (USA). Pyrazolopyrimidine derivatives were composed by the inventor. During in vitro experiment, 100% DMSO was prepared into 10 mM storage solution, the solution was stored in a refrigerator at −20° C. for future use, and was diluted to the required concentration with complete culture solution before use.
# (§3) Cell line and culture: Human leukemia cell line MV4-11, Jurkat, K562, human thyrophyma cell line TT, human gastric carcinoma cell line MKN-45, human malignant melanoma cell lines A375 and A875, human pancreatic carcinoma cell line panc-1, human cervical carcinoma cell line HELA, human colorectal carcinoma cell line HCT116, etc. were purchased from American type culture collection and were preserved by this laboratory. All leukemia cell lines (except MV4-11), gastric carcinoma cell lines and thyrophyma cell lines were cultured in RPMI-1640 complete medium containing 10% fetal bovine serum, 100 U/mL penicillin and 100 μg/mL streptomycin at 37° C. in 5% CO2. The remaining cell lines were cultured in DMEM complete medium containing 10% fetal bovine serum (containing 20% MV4-11 cell), 100 U/mL penicillin and 100 µg/mL streptomycin at 37° C. in 5% CO2.
# (§4) Cell suspension with cell concentration of 1-2×10^4/mL was adjusted with the complete cell medium and inoculated in a 96-well plate, with each well filled with 200 μl cell suspension that was cultured overnight. On the next day, supernatant was sucked and abandoned (supernatant was sucked upon centrifugation of suspension cells), and then cells were processed with test compounds at gradient concentrations respectively. Meanwhile, a negative control group free from drug and a solvent control group with equal volume were set, and the DMSO concentration was 0.1%. Each dose group was provided with three wells and cultured at 37° C. in 5% CO2. After 72 hours, 20 μl 5 mg/mL MTT reagent was added to each well, and cultured for another 2 to 4 hours, the supernatant was abandoned; 150 μL DMSO was added to each well again, vibrated and mixed evenly for 15 minutes; the absorbance (A) values (proportional to living cell amount) were determined with a microplate reader (λ=570 nm) and averaged. […] Experiment was repeated for 3 times at least. Experimental data were expressed with means, data statistics were tested by t, and P<0.05 means that difference has a statistical significance. The cell proliferation inhibition effects of all compounds as follows are expressed by IC50 or inhibition rate.
# [2] = tested on: human gastric carcinoma cell line MKN-45; assay: In vitro tumor cell proliferation inhibition (MTT): MKN-45; assay type: cell-based
# From the text: as §1, §2, §3, §4
# [3] = tested on: human malignant melanoma cell line A375; assay: In vitro tumor cell proliferation inhibition (MTT): A375; assay type: cell-based
# From the text: as §1, §2, §3, §4
# [4] = tested on: human malignant melanoma cell line A875; assay: In vitro tumor cell proliferation inhibition (MTT): A875; assay type: cell-based
# From the text: as §1, §2, §3, §4
# [5] = tested on: human pancreatic carcinoma cell line panc-1; assay: In vitro tumor cell proliferation inhibition (MTT): panc-1; assay type: cell-based
# From the text: as §1, §2, §3, §4
# [6] = tested on: human leukemia cell line Jurkat; assay: In vitro tumor cell proliferation inhibition (MTT): Jurkat; assay type: cell-based; settings: 72 hours
# From the text: as §1, §2, §3, §4
# [7] = tested on: human colorectal carcinoma cell line HCT116; assay: In vitro tumor cell proliferation inhibition (MTT): HCT116; assay type: cell-based
# From the text: as §1, §2, §3, §4
# [8] = tested on: human leukemia cell line K562; assay: In vitro tumor cell proliferation inhibition (MTT): K562; assay type: cell-based
# From the text: as §1, §2, §3, §4
# [9] = tested on: human thyrophyma cell line TT; assay: In vitro tumor cell proliferation inhibition (MTT): TT; assay type: cell-based
# From the text: as §1, §2, §3, §4
# [10] = tested on: human cervical carcinoma cell line HELA; assay: In vitro tumor cell proliferation inhibition (MTT): HELA; assay type: cell-based; settings: 72 hours
# From the text: as §1, §2, §3, §4
# [11] = tested on: human acute myeloid leukemia cell line MV4-11; assay: In vivo anti-leukemia tumor experiment, NOD-SCID mice-subcutaneous MV4-11 model, tumors more than 2000 mm^3
# From the text: The cell line used was human acute myeloid leukemia cell line MV4-11, with anti-leukemia drug Quizartinib (AC220) as a positive control.
# [12] = Homo sapiens, HCT-116, 72 hours
SMILES,"IC50 ([1]; Homo sapiens, MV4-11, 72 h) [nM]","IC50 ([2]; Homo sapiens, MKN-45, 72 hours) [µM]","IC50 ([3]; Homo sapiens, A-375, 72 hours) [µM]","IC50 ([4]; Homo sapiens, A875, 72 hours) [µM]","IC50 ([5]; Homo sapiens, PANC-1, 72 hours) [µM]","IC50 ([6]; Homo sapiens, Jurkat) [µM]","IC50 [7, 12] [µM]","IC50 ([8]; Homo sapiens, K562, 72 hours) [µM]","IC50 ([9]; Homo sapiens, 72 h) [µM]","IC50 ([10]; Homo sapiens, HeLa) [µM]",also measured
"Cn1nc(C(C)(C)C)cc1NC(=O)Nc1ccc(Oc2ncnc3[nH]ncc23)c(Cl)c1 [4a-32, 1-(4-((1H-pyrazolopyrimidine-4-yl)oxy)-3-chlorphenyl)-3-(3-tert-butyl-1-methylpyrazol-5-yl)urea]",1,3 to 10,3 to 10,3 to 10,3 to 10,3 to 10,< 50,,,,
O=C(Nc1cccc(Oc2ncnc3[nH]ncc23)c1)Nc1cccc(C(F)(F)F)c1 [4a-41],,,,,,,,,,,"IC50 ([1]; 72 hours): 7820 nM; IC50 ([2]; 72 hours): < 50 µM; IC50 ([3]; 72 hours): < 50 µM; IC50 ([4]; 72 hours): < 50 µM; IC50 ([5]; 72 hours): < 50 µM; IC50 [6]: < 50 µM; IC50 ([8]; 72 hours): < 50 µM; IC50 ([7]; 72 hours, read-out: Proliferation inhibition activity (IC50) HCT 116): < 50 µM; IC50 ([9]; 72 hours): < 50 µM; IC50 [10]: < 50 µM"
O=C(Nc1ccc(C(F)(F)F)cc1)Nc1cccc(Oc2ncnc3[nH]ncc23)c1 [4a-43],< 5000,< 50,< 50,< 50,< 50,< 50,< 50,< 50,4.57,< 50,
CC(C)(C)c1cc(NC(=O)Nc2ccc(Oc3ncnc4[nH]ncc34)c(F)c2)n(C(=O)O)n1 [4a-59],0.00984,,,,,,,,,< 50,
"CC(C)n1ncc2c(Oc3ccc(NC(=O)Nc4cc(C(C)(C)C)[nH]n4)cc3)ncnc21 [5a-7, 1-(5-tert-butyl-1H-pyrazol-3-yl)-3-(4-(1-isopropyl-(1H-pyrazolopyrimidine-4-yl)oxy)phenyl)urea]",,< 50,< 50,< 50,< 50,< 50,,,< 50,,

# More lines, main results first:
"IC50 ([1]; Homo sapiens, MV4-11, 72 h) [nM]","IC50 ([2]; Homo sapiens, MKN-45, 72 hours) [µM]","IC50 ([3]; Homo sapiens, A-375, 72 hours) [µM]","IC50 ([4]; Homo sapiens, A875, 72 hours) [µM]","IC50 ([5]; Homo sapiens, PANC-1, 72 hours) [µM]","IC50 ([6]; Homo sapiens, Jurkat) [µM]","IC50 [7, 12] [µM]","IC50 ([8]; Homo sapiens, K562, 72 hours) [µM]","IC50 ([9]; Homo sapiens, 72 h) [µM]","IC50 ([10]; Homo sapiens, HeLa) [µM]",SMILES,also measured
3,< 50,< 10,< 10,1 to 3,1 to 3,< 10,3 to 10,1 to 3,< 50,"CC(C)(C)c1cc(NC(=O)Nc2ccc(Oc3ncnc4[nH]ncc34)c(Cl)c2)no1 [4a-46, 1-(4-((1H-pyrazolopyrimidine-4-yl)oxy)-3-chlorphenyl)-3-(5-tert-butylisoxazol-3-yl)urea]",
54.2,,,,< 50,< 50,< 50,< 50,,,O=C(Nc1ccc(Cl)c(C(F)(F)F)c1)Nc1ccc(Oc2ncnc3[nH]ncc23)cc1Cl [4a-55],
0.0146,,,,,,,,,< 50,CC(C)(C)c1cc(NC(=O)Nc2ccc(Oc3ncnc4[nH]ncc34)cc2)n(C(=O)O)n1 [4a-58],"weight loss, rash, diarrhea and other adverse reactions during administration ([11]; NOD-SCID mice, 3 and 10 mg/kg q.d. oral): not found; in vivo tumor growth inhibition effect ([11]; daily dose of 3 mg/kg or above, oral, MV4-11 tumors more than 2000 mm^3 at start): completely inhibit tumor growth"
28,< 50,,,,< 50,,,4.13,< 50,CN(C)CCCn1ncc2c(Oc3ccc(NC(=O)Nc4cc(C(C)(C)C)on4)cc3)ncnc21 [5a-6],
